Here are results for two compounds from patent US20060142323A1, “Dual binding site acetylcholinesterase inhibitors for the treatment of alzheimer's disease” (priority 2002, published 2006).

A value given as a limit tells only on which side of the number the result lay.

Data set [1] concerns SH—SY5Y cells exposed to β-amyloid fragment 25-35. The data set is described as follows: Effects on β-amyloid toxicity (fragment 25-35, LDH viability). Type of data set: cell-based, human. The conditions noted are these: 1 hour pretreatment, Aβ 25-35 at 200 μM, 24 hours. The procedure:
Effects on β-Amiloid Toxicity
We have tested if some of these molecules interfere with amyloid peptide toxicity. Cells SH—SY5Y were cultured in 96-well plates as toxicity experiments. Cells were pretreated for 1 hour with the compounds at different concentrations (from 10^−5 to 10^−9), immediately neuronal death is induced adding synthetic peptide β-amyloid, fragment 25-35 (A25-35) at 200 μM. 24 hours later cell viability was assessed with the LDH assay; results are reported relative to untreated wells.

The next data set addresses AChE peripheral site (Homo sapiens, UniProt P22303). The data set is described as follows: Propidium competition (fluorescence). Conditions: 20 μM propidium iodide, AChE incubated at least 6 hours with compound. Type of data set: binding. How it is done: Fluorescence was measured in a Fluostar optima plate reader (BMG). Measurements were carried out in 100 μl solution volume, in 96-well plates. The buffer used was 1 mM Tris/HCl, pH 8.0. […] AChE was incubated, at least 6 hours, with the molecules at different concentrations. 20 μM propidium iodide was added 10 min before fluorescence measurement.

Data set [2] relates to human neuroblastoma cell line SH—SY5Y. Put plainly: Toxicity measurement (LDH) in SH-SY5Y cells. Type of data set: cell-based. The conditions noted are these: 24 hours exposure. The procedure:
The cytotoxicity effect of the molecules was tested in the human neuroblastoma cell line SH—SY5Y. These cells were cultured in 96-well plates in minimum essential medium, Han's F12 medium, supplemented with 10% fetal bovine serum, 1% glutamine and 1% penicillin/streptomycin, and grown in. a 5% CO2 humidified incubator at 37° C.
The cells were plated at 10^4 cells for each well, at least, 48 hours before the toxicity measure. Cells were exposed for 24 hours to the compounds at different concentrations (from 10^−5 to 10^−9), quantitative assessment of cell death was made by measurement of the intracellular enzyme lactate dehydrogenase (LDH) (citotoxicity detection kit, Roche). The cuantity of LDH was evaluated in a microplate reader Anthos 2010, at 492 and 620 nm. Controls were taken as 100% viability.

The target of another data set is T1, BuChE from human serum (Homo sapiens, UniProt P06276).
T1 construct: The assay solution consisted of 0.01 units BuChE from human serum; from tissue; host or cells: human serum
T1 sequence (P06276 29-602): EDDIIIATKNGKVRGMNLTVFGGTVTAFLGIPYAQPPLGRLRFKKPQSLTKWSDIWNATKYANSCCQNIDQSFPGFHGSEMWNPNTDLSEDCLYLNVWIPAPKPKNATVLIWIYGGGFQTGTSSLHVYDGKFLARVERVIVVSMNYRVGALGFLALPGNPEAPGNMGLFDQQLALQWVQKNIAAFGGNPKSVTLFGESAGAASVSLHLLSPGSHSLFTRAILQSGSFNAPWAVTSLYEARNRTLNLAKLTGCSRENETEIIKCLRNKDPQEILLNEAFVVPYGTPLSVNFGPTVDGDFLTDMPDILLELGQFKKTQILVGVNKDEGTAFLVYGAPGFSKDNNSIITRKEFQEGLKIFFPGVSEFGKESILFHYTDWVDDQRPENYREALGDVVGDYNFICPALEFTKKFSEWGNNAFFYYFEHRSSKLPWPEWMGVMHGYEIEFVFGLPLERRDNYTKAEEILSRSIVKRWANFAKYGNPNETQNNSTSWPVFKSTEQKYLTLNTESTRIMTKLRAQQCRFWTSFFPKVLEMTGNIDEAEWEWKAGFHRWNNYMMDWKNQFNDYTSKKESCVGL
Put plainly: Butyrylcholinesterase (BuChE) inhibition (from human serum). Type of data set: biochemical. Conditions: human serum BuChE, 30° C., 10 min preincubation; read-out: IC50 BuChE. How it is done: Butyrylcholinetersae (BuChE) Inhibition (from Human Serum)
BuChE inhibitory activity was evaluated at 30° C. by the colorimetric method reported by Ellman (Ellman, G. L.; Courtney, K. D.; Andres, B.; Featherstone, R. M. Biochem. Pharmacol. 1961, 7, 88-95]. The assay solution consisted of 0.01 units BuChE from human serum, 0.1 M sodium phosphate buffer pH 8, 0.3 mM 5,5′-dithiobis (2-nitrobenzoic acid) (DTNB, Ellman's reagent), and 0.5 mM butylthiocholine iodide as the substrate of the enzymatic reaction. Enzyme activity was determined by measuring the absorbance at 405 nm during 5 minutes with a microplate reader Digiscan 340T. The tested compounds were preincubated with the enzyme for 10 minutes at 30° C. The reaction rate was calculated with, at least, triplicate measurements.

In data set [3] the target is T2, AChE from bovine erythrocytes (Bos taurus, UniProt P23795).
T2 construct: 0.02 units AChE (Sigma Chemical Co. from bovine erythrocytes); purchased Sigma Chemical Co; host or cells: bovine erythrocytes
T2 sequence (P23795 31-614 isoform P23795-2 limits assumed): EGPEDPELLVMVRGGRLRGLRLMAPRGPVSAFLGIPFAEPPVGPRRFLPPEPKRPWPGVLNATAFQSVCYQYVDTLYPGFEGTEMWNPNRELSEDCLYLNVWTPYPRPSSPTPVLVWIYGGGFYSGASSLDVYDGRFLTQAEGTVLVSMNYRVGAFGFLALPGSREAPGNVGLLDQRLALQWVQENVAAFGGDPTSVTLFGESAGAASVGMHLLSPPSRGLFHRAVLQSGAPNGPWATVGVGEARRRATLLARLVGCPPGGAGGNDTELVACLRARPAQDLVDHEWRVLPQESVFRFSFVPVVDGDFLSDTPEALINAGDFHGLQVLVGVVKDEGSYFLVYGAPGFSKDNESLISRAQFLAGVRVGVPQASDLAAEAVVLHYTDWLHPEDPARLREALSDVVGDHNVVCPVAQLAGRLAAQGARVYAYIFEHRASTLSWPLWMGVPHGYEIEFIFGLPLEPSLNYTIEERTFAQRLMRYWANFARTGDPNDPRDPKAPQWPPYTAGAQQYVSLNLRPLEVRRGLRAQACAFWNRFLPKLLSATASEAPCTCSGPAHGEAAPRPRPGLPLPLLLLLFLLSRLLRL
The data set is described as follows: Acetylcholinesterase (AChE) inhibition (from bovine erythrocytes), Ellman method at 30° C., Digiscan 340T. The conditions noted are these: bovine erythrocytes AChE, 30° C., 5 min preincubation; read-out: IC50 AchE. Type of data set: biochemical. The procedure:
Acetylcholinesterase (AChE) Inhibition (from Bovine Erythrocytes)
AChE inhibitory activity was evaluated at 30° C. by the colorimetric method reported by Ellman [Ellman, G. L.; Courtney, K. D.; Andres, B.; Featherstone, R. M. Biochem. Pharmacol. 1961, 7, 88-95]. The assay solution consisted of 0.1 M phosphate buffer pH 8, 0.3 mM 5,5′-dithiobis (2-nitrobenzoic acid) (DTNB, Ellman's reagent), 0.02 units AChE (Sigma Chemical Co. from bovine erythrocytes), and 0.5 mM acetylthiocholine iodide as the substrate of the enzymatic reaction. The compounds tested were added to the assay solution and preincubated with the enzyme for 5 min at 30° C. After that period, the substrate was added. The absorbance changes at 405 nm were recorded for 5 min with a microplate reader Digiscan 340T, the reaction rates were compared, and the percent inhibition due to the presence of test compounds was calculated. The reaction rate was calculated with, at least, triplicate measurements, and the percent inhibition due to the presence of test compound was calculated relative to the compound-free control.

The test system of data set [4] is calcium channels in SH—SY5Y cells. The data set is described as follows: Effects on calcium channels (K+ stimulated calcium entry, Fluo-4). Type of data set: cell-based, human. The conditions noted are these: 60 mM K+, 10 min preincubation. The procedure:
Effects on Calcium Channels
We have studied if these compounds are able to block calcium channels. Calcium entry in SH—SY5Y cells was stimulated with 60 mM K^+ in 96-well plates. Cells were plated at 5·10^4 for each well, at least, 48 hours before the experiment. For measurement of intracellular calcium, SH—SY5Y were washed with Krebs/HEPES buffer, pH 7.4. and cells were loaded with the calcium indicator dye Fluo-4 (Molecular Probes) for 40 min at 37° C. followed by 15 min post incubation at room temperature. Intracellular calcium was measured fluorometrically in a Fluostar optima plate reader (BMG), with excitation wavelengths set at 485 nm and emission at 520 nm. The tested compounds were preincubated with the cells for 10 minutes before the depolarization with K^+.

The test system of data set [5] is SH—SY5Y cells exposed to H2O2. Put plainly: Antioxidant activity (H2O2 exposure, LDH viability). Type of data set: cell-based, human. The conditions noted are these: 1 hour pretreatment, 24 hours H2O2, LDH. The procedure: In order to evaluate if these compounds have antioxidant properties cells SH—SY5Y were exposed 24 hours to […] H2O2, previously these cells were pretreated for 1 hour with the molecules at different concentrations (from 10^−5 to 10^−9). The antioxidant activity is evaluated measuring cellular viability, using the LDH assay. Cells SH—SY5Y were cultured in 96-well plates as toxicity experiments.

Sequence of AChE peripheral site (P22303 32-614): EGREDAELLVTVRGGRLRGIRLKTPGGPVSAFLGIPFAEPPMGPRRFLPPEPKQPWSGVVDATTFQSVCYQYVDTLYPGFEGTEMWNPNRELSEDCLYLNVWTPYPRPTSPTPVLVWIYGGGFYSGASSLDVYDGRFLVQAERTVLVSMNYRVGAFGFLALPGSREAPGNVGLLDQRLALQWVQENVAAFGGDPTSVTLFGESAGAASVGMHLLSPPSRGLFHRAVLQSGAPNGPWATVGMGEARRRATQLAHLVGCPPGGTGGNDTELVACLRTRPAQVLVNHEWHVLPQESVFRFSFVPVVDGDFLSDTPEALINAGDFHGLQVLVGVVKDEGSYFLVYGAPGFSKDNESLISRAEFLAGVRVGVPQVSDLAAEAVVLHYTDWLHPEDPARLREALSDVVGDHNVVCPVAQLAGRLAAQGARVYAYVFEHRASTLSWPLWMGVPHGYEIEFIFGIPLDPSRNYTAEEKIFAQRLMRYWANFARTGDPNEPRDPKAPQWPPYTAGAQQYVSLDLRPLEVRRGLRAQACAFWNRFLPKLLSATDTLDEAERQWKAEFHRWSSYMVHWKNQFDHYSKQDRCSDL

Consider `O=C1c2ccccc2C(=O)N1CCCCCCCNc1c2ccccc2nc2ccccc12` [Compound 7, 2-[7-(Acridin-9-ylamino)-heptyl]-isoindole-1,3-dione], for which, in data set [1], the “inhibition of Aβ(25-35) toxicity” value came out at 1 µM. For the same compound, the Propidium competition at AChE peripheral site was 100 µM. In data set [2], this compound returned a Toxicity above 100 µM. The IC50 at BuChE from human serum worked out at 700 nM; in data set [3], 1500 nM. Further, in data set [4], the Calcium channel blockade stood at 10 µM.

Consider `CN(CCCNc1c2c(nc3ccccc13)CCCC2)CCCNc1c2ccccc2nc2ccccc12` [Compound 21], for which the Propidium competition on AChE peripheral site is 1000 µM. Also, in data set [2], the Toxicity was above 100 µM. Besides, the half-inhibitory concentration (IC50) on BuChE from human serum was 70 nM; in data set [3], 4 nM. Besides, the Antioxidant activity in data set [5] was 10 µM.
